# Read-outs that look alike come from different tables or passages of the source.
# What was measured:
# [1] = test system: PC3; assay: Tumor cell line proliferation assay (Alamar Blue); assay type: cell-based; details: Homo sapiens, PC-3
# Procedure: The ability of one or more subject compounds to inhibit tumor cell line proliferation is determined according to standard procedures known in the art. For instance, an in vitro cellular proliferation assay can be performed to measure the metabolic activity of live cells. The assay is performed in a 96 well microtiter plate using Alamar Blue reduction. […] A compound disclosed herein is diluted in Tumor Cell Media and added in a 10 ul volume. […] A volume of 10 uL of Alamar Blue reagent is added to each well and plates are incubated for 3 hours at 37 C and 5% CO2. Alamar Blue fluoresce is read at 560Ex/590Em, and IC50 values are calculated using GraphPad Prism 5.
# [2] = molecular target: mTORC (Homo sapiens (Human), UniProt P42345); assay: mTOR kinase inhibition assay; assay type: biochemical
# Procedure: The compounds described herein can be tested against recombinant mTOR (Invitrogen) in an assay containing 50 mM HEPES, pH 7.5, 1 mM EGTA, 10 mM MgCl2, 2.5 mM, 0.01% Tween, 10 μM ATP (2.5 μCi of p-32P-ATP), and 3 μg/mL BSA. Rat recombinant PHAS-1/4EBP1 (Calbiochem; 2 mg/mL) is used as a substrate. Reactions are terminated by spotting onto nitrocellulose, which is washed with 1M NaCl/1% phosphoric acid (approximately 6 times, 5-10 minutes each). Sheets are dried and the transferred radioactivity quantitated by phosphorimaging.
# For instance, one can use Invitrogen's LanthaScreen™ Kinase assay to test the inhibitors of mTOR disclosed herein. This assay is a time resolved FRET platform that measures the phosphorylation of GFP labeled 4EBP1 by mTOR kinase. The kinase reaction is performed in a white 384 well microtitre plate. The total reaction volume is 20 ul per well and the reaction buffer composition is 50 mM HEPES pH7.5, 0.01% Polysorbate 20, 1 mM EGTA, 10 mM MnCl2, and 2 mM DTT. In the first step, each well receives 2 ul of test compound in 20% dimethylsulphoxide resulting in a 2% DMSO final concentration. Next, 8 ul of mTOR diluted in reaction buffer is added per well for a 60 ng/ml final concentration. To start the reaction, 10 ul of an ATP/GFP-4EBP1 mixture (diluted in reaction buffer) is added per well for a final concentration of 10 uM ATP and 0.5 uM GFP-4EBP1. The plate is sealed and incubated for 1 hour at room temperature. […] The plate is sealed, incubated for 1 hour at room temperature, and then read on a plate reader set up for LanthaScreen™ TR-FRET. Data is analyzed and IC50s are generated using GraphPad Prism 5.
# [3] = molecular target: PI3K α (Homo sapiens (Human), UniProt P42336); assay: PI3K α inhibition assay; assay type: biochemical
# Sequence of PI3K α (P42336 whole entry): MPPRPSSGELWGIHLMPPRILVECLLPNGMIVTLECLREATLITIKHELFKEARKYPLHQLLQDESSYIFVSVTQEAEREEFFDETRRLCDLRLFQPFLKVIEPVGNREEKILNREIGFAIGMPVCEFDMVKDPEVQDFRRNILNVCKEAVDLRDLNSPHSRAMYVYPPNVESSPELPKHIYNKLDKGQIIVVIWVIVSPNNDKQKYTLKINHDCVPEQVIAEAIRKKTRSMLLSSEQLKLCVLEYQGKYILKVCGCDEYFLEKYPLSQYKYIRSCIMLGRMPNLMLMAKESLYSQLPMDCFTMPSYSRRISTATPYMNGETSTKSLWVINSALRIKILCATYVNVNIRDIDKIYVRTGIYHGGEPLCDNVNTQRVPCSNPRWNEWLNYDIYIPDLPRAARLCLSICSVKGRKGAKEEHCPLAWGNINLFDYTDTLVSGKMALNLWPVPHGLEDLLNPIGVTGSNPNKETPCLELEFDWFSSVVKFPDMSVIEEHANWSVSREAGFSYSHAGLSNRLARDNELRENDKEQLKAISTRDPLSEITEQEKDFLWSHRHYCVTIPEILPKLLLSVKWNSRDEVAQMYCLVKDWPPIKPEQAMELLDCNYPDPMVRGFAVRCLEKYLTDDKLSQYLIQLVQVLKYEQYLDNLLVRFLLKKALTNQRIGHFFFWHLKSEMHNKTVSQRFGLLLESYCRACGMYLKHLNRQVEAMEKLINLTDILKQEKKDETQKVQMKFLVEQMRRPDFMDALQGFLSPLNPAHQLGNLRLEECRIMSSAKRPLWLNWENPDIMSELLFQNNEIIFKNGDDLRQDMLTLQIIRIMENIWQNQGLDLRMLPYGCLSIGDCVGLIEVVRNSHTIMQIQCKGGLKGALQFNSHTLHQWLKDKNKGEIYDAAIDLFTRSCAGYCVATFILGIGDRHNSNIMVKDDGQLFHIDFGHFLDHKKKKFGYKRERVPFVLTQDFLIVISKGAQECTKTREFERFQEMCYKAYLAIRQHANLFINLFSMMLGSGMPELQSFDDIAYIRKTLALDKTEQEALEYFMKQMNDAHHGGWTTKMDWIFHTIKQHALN
# Sequence of PI3K α (P27986 whole entry partner): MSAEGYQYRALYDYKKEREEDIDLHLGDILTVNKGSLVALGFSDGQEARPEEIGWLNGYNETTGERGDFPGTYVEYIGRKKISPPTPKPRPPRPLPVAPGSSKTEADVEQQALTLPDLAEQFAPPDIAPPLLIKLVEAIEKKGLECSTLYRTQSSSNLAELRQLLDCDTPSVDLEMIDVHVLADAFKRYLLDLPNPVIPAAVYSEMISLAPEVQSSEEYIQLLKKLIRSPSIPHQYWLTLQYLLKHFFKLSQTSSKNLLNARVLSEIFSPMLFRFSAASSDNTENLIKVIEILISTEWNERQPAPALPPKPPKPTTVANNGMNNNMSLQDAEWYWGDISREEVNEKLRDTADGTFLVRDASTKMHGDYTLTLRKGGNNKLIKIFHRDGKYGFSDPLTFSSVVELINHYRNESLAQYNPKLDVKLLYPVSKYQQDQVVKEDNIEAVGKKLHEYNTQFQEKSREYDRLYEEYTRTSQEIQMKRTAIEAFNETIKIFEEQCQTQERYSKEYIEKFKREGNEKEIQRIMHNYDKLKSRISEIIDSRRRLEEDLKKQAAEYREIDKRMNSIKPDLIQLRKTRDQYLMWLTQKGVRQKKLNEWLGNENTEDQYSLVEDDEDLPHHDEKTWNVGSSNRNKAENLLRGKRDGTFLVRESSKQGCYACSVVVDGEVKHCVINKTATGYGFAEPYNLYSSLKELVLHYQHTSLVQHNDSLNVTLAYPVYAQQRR
# Procedure: (§1) IC50 values are measured using either a standard TLC assay for lipid kinase activity (described below) or a high-throughput membrane capture assay. Kinase reactions are performed by preparing a reaction mixture containing kinase, inhibitor (2% DMSO final concentration), buffer (25 mM HEPES, pH 7.4, 10 mM MgCl2), and freshly sonicated phosphatidylinositol (100 μg/ml). Reactions are initiated by the addition of ATP containing 10 μCi of γ-32P-ATP to a final concentration 10 or 100 μM and allowed to proceed for 5 minutes at room temperature. For TLC analysis, reactions are then terminated by the addition of 105 μl 1N HCl followed by 160 μl CHCl3:MeOH (1:1). The biphasic mixture is vortexed, briefly centrifuged, and the organic phase is transferred to a new tube using a gel loading pipette tip precoated with CHCl3. […] The TLC plates are then dried, exposed to a phosphorimager screen (Storm, Amersham), and quantitated.
# (§2) Briefly, the assay is a time resolved FRET assay that indirectly measures PIP3 product formed by the activity of a PI3-K. The kinase reaction is performed in a microtitre plate (e.g., a 384 well microtitre plate). The total reaction volume is approximately 20 ul per well. In the first step, each well receives 2 ul of test compound in 20% dimethylsulphoxide resulting in a 2% DMSO final concentration. Next, approximately 14.5 ul of a kinase/PIP2 mixture (diluted in 1× reaction buffer) is added per well for a final concentration of 0.25-0.3 ug/ml kinase and 10 uM PIP2. The plate is sealed and incubated for 15 minutes at room temperature. To start the reaction, 3.5 ul of ATP (diluted in 1× reaction buffer) is added per well for a final concentration of 10 uM ATP. The plate is sealed and incubated for 1 hour at room temperature. The reaction is stopped by adding 5 ul of Stop Solution per well and then 5 ul of Detection Mix is added per well. The plate is sealed, incubated for 1 hour at room temperature, and then read on an appropriate plate reader. Data is analyzed and IC50s are generated using GraphPad Prism 5.
# [4] = molecular target: PI3K β (Homo sapiens (Human), UniProt P42338); assay: PI3K β inhibition assay; assay type: biochemical
# Sequence of PI3K β (P42338 whole entry): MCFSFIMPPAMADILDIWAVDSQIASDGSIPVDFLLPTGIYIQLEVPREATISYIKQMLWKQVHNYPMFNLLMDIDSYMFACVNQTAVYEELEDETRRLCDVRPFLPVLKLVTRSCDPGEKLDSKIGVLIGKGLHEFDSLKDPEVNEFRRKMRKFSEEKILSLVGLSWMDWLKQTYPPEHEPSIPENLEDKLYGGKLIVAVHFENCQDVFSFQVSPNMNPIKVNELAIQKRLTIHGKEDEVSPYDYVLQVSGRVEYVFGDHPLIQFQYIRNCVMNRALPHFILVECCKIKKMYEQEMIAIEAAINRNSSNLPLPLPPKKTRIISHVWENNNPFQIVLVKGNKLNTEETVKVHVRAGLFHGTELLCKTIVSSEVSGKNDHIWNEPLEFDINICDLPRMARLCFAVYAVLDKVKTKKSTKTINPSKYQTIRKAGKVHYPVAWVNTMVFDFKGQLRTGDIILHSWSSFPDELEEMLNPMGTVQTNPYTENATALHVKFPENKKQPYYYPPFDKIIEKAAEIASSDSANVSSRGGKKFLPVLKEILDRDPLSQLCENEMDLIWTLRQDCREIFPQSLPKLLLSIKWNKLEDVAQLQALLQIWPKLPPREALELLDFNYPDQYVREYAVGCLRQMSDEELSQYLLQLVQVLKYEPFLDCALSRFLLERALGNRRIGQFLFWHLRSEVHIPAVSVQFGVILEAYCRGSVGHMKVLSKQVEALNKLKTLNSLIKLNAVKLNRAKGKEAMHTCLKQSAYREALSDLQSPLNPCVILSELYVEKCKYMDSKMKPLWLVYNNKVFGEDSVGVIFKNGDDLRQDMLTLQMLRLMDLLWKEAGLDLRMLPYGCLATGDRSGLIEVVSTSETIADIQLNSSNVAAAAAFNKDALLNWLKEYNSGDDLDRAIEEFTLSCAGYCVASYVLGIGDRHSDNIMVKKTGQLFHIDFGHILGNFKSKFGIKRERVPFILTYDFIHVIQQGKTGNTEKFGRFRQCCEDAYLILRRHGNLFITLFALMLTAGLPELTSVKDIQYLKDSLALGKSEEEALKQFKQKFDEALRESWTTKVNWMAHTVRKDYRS
# Sequence of PI3K β (P27986 whole entry partner): as the sequence (P27986 whole entry partner) above
# Procedure: as §1, §2
# [5] = molecular target: PI3K γ (Homo sapiens (Human), UniProt P48736); assay: PI3K γ inhibition assay; assay type: biochemical
# Sequence of PI3K γ (P48736 whole entry): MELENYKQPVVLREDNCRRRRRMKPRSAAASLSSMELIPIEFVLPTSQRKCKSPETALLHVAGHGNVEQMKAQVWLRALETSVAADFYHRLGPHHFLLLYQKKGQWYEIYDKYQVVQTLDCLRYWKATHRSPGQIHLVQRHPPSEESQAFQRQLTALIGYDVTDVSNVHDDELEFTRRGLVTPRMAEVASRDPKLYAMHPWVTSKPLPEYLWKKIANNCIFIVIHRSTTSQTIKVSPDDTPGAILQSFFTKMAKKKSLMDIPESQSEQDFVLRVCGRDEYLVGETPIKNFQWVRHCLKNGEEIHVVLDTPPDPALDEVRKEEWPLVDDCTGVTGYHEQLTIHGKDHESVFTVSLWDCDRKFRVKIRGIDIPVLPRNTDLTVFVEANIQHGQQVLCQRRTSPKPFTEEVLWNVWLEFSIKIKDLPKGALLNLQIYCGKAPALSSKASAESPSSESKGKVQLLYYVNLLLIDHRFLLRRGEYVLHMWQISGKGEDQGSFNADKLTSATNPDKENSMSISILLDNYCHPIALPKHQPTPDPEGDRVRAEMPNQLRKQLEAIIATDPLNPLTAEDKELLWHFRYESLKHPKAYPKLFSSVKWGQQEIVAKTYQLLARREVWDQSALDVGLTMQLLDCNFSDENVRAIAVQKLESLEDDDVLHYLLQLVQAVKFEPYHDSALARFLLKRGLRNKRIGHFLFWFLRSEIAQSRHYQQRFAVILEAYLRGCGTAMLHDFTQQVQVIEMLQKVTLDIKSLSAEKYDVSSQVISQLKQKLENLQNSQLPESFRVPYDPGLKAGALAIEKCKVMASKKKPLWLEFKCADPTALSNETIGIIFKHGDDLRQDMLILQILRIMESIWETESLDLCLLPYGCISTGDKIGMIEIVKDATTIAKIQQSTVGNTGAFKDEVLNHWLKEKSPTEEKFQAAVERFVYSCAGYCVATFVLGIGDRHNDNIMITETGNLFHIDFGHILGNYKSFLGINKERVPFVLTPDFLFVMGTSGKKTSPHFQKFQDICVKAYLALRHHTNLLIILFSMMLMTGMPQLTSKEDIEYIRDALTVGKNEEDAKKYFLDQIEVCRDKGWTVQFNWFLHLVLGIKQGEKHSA
# Procedure: as §1, §2
# [6] = molecular target: PI3K δ (Homo sapiens (Human), UniProt O00329); assay: PI3K δ inhibition assay; assay type: biochemical
# Sequence of PI3K δ (O00329 whole entry): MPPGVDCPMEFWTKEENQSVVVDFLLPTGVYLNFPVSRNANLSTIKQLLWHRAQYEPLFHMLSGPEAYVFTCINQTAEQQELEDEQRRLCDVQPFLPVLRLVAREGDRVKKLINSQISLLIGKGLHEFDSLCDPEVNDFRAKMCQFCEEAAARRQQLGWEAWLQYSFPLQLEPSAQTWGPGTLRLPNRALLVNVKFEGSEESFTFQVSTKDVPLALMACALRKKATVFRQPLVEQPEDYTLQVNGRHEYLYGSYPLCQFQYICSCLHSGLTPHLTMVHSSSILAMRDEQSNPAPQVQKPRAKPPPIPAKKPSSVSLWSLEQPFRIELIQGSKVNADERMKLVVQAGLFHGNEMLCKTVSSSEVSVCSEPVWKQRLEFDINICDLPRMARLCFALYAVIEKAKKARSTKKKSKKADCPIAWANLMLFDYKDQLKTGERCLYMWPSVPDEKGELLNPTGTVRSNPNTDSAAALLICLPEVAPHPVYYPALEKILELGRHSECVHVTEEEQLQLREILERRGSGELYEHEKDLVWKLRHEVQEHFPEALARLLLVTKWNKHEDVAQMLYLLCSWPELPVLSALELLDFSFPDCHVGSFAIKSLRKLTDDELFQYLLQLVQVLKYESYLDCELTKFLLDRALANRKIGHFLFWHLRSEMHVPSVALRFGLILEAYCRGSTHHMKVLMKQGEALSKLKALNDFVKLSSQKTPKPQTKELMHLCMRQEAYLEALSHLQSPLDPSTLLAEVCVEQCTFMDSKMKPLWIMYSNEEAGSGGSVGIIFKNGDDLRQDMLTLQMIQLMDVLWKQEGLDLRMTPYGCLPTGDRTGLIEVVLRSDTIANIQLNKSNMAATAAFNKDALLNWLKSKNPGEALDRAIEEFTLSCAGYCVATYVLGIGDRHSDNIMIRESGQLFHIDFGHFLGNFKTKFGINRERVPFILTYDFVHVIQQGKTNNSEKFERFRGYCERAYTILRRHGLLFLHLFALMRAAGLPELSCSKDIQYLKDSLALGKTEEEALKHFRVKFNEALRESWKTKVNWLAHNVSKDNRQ
# Sequence of PI3K δ (P27986 whole entry partner): as the sequence (P27986 whole entry partner) above
# Procedure: as §1, §2
# [7] = test system: B6.Sle1z.Sle3z model; details: cited from earlier work
# [8] = PBS pH 7.4, 24 hours, 37 C; cited from earlier work
# [9] = test system: leukemic cells from p190 transduced cultures; details: about 70 mg/kg twice daily; cited from earlier work
# [10] = control compounds, 5 μM; cited from earlier work
# [11] = test system: PI3K/Akt/mTor signaling; assay: Kinase signaling in blood (phosflow); assay type: cell-based; details: anti-CD3 stimulation
# Procedure: PI3K/Akt/mTor signaling is measured in blood cells using the phosflow method (Methods Enzymol. 2007; 434:131-54). The advantage of this method is that it is by nature a single cell assay so that cellular heterogeneity can be detected rather than population averages. This allows concurrent dinstinction of signaling states in different populations defined by other markers. Phosflow is also highly quantitative. To test the effects of the inhibitors disclosed herein, unfractionated splenocytes, or peripheral blood mononuclear cells are stimulated with anti-CD3 to initiate T-cell receptor signaling. The cells are then fixed and stained for surface markers and intracellular phosphoproteins.
# Similarly, aliquots of whole blood are incubated for 15 minutes with vehicle (e.g. 0.1% DMSO) or kinase inhibitors at various concentrations, before addition of stimuli to crosslink the T cell receptor (TCR) (anti-CD3 with secondary antibody) or the B cell receptor (BCR) using anti-kappa light chain antibody (Fab′2 fragments). After approximately 5 and 15 minutes, samples are fixed (e.g. with cold 4% paraformaldehyde) and used for phosflow. […] The level of phosphrylation of kinase substrates such as Akt and S6 are then measured by incubating the fixed cells with labeled antibodies specific to the phosphorylated isoforms of these proteins. The population of cells are then analyzed by flow cytometery. […]
Compound,"IC50 ([2]; Table 1, read-out: mTORC IC50) [nM]","IC50 ([3]; Table 1, read-out: PI3K α IC50) [nM]","IC50 ([4]; Table 1, read-out: PI3K β IC50) [nM]","IC50 ([5]; Table 1, read-out: PI3K γ IC50) [nM]","IC50 ([6]; Table 1, read-out: PI3K δ IC50) [nM]",other results
CC(C)n1nc(-c2cc3c(Cl)c(O)ccc3[nH]2)c2c(N)ncnc21 [Compound 22],–,–,–,–,–,"IC50 ([1]; Table 1, PC3 cells, read-out: PC3 proliferation): < 500 nM"
CNC(=O)Nc1nc2ccc(-c3nn(C4CCN(C(C)=O)CC4)c4ncnc(N)c34)cc2s1 [Compound 23],–,–,–,–,–,"IC50 ([2]; Table 2, compound numbers of Table 3, read-out: IC50 results mTORC): ≤ 50 nM; IC50 ([3]; Table 2, compound numbers of Table 3, read-out: IC50 results PI3K alpha): ≤ 50 nM; IC50 ([4]; Table 2, compound numbers of Table 3, read-out: IC50 results PI3K beta): ≤ 100 nM; IC50 ([5]; Table 2, compound numbers of Table 3, read-out: IC50 results PI3K gamma): ≤ 50 nM; IC50 ([6]; Table 2, compound numbers of Table 3, read-out: IC50 results PI3K delta): ≤ 50 nM; IC50 ([1]; Table 2, compound numbers of Table 3, read-out: IC50 results PC3 proliferation): > 1000 nM"
Nc1ncnc2c1c(-c1cc3cc(O)ccc3[nH]1)nn2C1CCCCC1 [Compound 26],< 10,> 500,> 500,< 500,< 100,–
CCOC(=O)Cn1nc(-c2cc3cc(O)ccc3[nH]2)c2c(N)ncnc21 [Compound 28],< 500,> 500,> 500,–,> 500,–
CC(=O)N1CCC(n2nc(-c3cc4cc(O)ccc4[nH]3)c3c(N)ncnc32)CC1 [Compound 30],< 25,> 500,> 500,–,> 500,–
Nc1ncnc2c1c(-c1cc3cc(O)ccc3[nH]1)nn2C1CCN(C(=O)C2CC2)CC1 [Compound 31],< 25,> 500,> 500,–,< 500,–
Nc1ncnc2c1c(-c1cc3cccc(O)c3[nH]1)nn2C1CCN(C(=O)C2CC2)CC1 [Compound 41],< 10,> 500,> 500,< 50,> 500,–
Nc1ncnc2c1c(-c1cc3cc(O)ccc3[nH]1)nn2C1CCOCC1 [Compound 42],< 5,> 500,> 500,–,< 100,–
CNC(=O)CCn1nc(-c2cc3cc(O)ccc3[nH]2)c2c(N)ncnc21 [Compound 43],> 500,> 500,> 500,–,> 500,–
Cc1nccn1CCn1nc(-c2cc3cc(O)ccc3[nH]2)c2c(N)ncnc21 [Compound 44],< 100,> 500,> 500,–,> 500,–
Nc1ncnc2c1c(-c1cc3c(Cl)cccc3[nH]1)nn2C1CCOCC1 [Compound 48],< 50,> 500,> 500,> 500,> 500,–
Nc1ncnc2c1c(-c1cc3cc(O)ccc3[nH]1)nn2C1CC(N2CCOCC2)C1 (centres unmarked) [Compound 49],< 10,> 500,> 500,< 500,< 500,–
CC(C)n1nc(-c2cc3cccc(Cl)c3[nH]2)c2c(N)ncnc21 [Compound 50],< 50,> 500,> 500,< 500,< 500,–
Nc1ncnc2c1c(-c1cc3cccc(Cl)c3[nH]1)nn2C1CCOCC1 [Compound 51],< 50,> 500,> 500,< 500,< 500,–
CN1CCN(C2CC(n3nc(-c4cc5cc(O)ccc5[nH]4)c4c(N)ncnc43)C2)CC1 (centres unmarked) [Compound 52],< 500,> 500,> 500,> 500,< 500,–
COc1ccc(Cl)c2cc(-c3nn(C4CCOCC4)c4ncnc(N)c34)[nH]c12 [Compound 61],< 25,> 500,> 500,> 500,> 500,–

Compound,"IC50 ([2]; Table 1, read-out: mTORC IC50) [nM]","IC50 ([3]; Table 1, read-out: PI3K α IC50) [nM]","IC50 ([4]; Table 1, read-out: PI3K β IC50) [nM]","IC50 ([5]; Table 1, read-out: PI3K γ IC50) [nM]","IC50 ([6]; Table 1, read-out: PI3K δ IC50) [nM]",other results
Nc1ncnc2c1c(-c1cc3cccc(O)c3[nH]1)nn2C1CCOCC1 [Compound 62],< 5,> 500,> 500,> 500,< 100,–
COc1cccc2cc(-c3nn(C4CCOCC4)c4ncnc(N)c34)[nH]c12 [Compound 63],< 5,< 500,> 500,< 25,< 25,–
CC(C)N1CCC(n2nc(-c3cc4cccc(O)c4[nH]3)c3c(N)ncnc32)CC1 [Compound 64],< 25,> 500,> 500,< 500,< 500,–
CC(=O)N1CCC(n2nc(-c3cc4ccc(O)cc4[nH]3)c3c(N)ncnc32)CC1 [Compound 65],< 10,< 50,> 500,< 25,< 25,–
COc1cccc2cc(-c3nn(C4CCN(C(=O)C5CC5)CC4)c4ncnc(N)c34)[nH]c12 [Compound 66],> 500,> 500,> 500,> 500,> 500,–
COc1cc(Cl)c2[nH]c(-c3nn(C4CCOCC4)c4ncnc(N)c34)cc2c1 [Compound 67],> 500,> 500,> 500,> 500,> 500,–
Nc1ncnc2c1c(-c1cc3cc(O)cc(Cl)c3[nH]1)nn2C1CCOCC1 [Compound 68],< 5,< 500,> 500,< 50,< 25,–
CC(=O)N1CCC(n2nc(-c3cc4c(Cl)ccc(O)c4[nH]3)c3c(N)ncnc32)CC1 [Compound 69],< 5,> 500,> 500,> 500,< 500,–
CC(=O)N1CCC(n2nc(-c3cc4cc(O)cc(Cl)c4[nH]3)c3c(N)ncnc32)CC1 [Compound 70],< 5,< 500,> 500,< 100,< 25,–
CC(C)N1CCC(n2nc(-c3cc4c(Cl)ccc(O)c4[nH]3)c3c(N)ncnc32)CC1 [Compound 71],< 100,> 500,> 500,> 500,> 500,–
CO[C@H]1C[C@@H]2CC[C@@H](C)[C@@](O)(O2)C(=O)C(=O)N2CCCC[C@H]2C(=O)O[C@H]([C@H](C)C[C@@H]2CC[C@@H](OCCO)[C@H](OC)C2)CC(=O)[C@H](C)/C=C(\C)[C@@H](O)[C@@H](OC)C(=O)[C@H](C)C[C@H](C)/C=C/C=C/C=C/1C [RAD001],–,–,–,–,–,lupus symptoms [7]: ameliorate lupus symptoms
O=C(O)CCCc1ccc(N(CCCl)CCCl)cc1 [chlorambucil],–,–,–,–,–,chemical stability [8]: largely hydrolyzed over the course of 24 hours
Cc1ccc(NC(=O)c2ccc(CN3CCN(C)CC3)cc2)cc1Nc1nccc(-c2cccnc2)n1 [imatinib],–,–,–,–,–,leukemogenesis [9]: delay but not cure leukemogenesis
CC(C)[N+](C)(CCOC(=O)C1c2ccccc2Oc2ccccc21)C(C)C [propantheline],–,–,–,–,–,plasma stability [10]: intermediate plasma stability
CCCOc1cc(N)ccc1C(=O)OCCN(CC)CC [propoxycaine],–,–,–,–,–,plasma stability [10]: low plasma stability
CO[C@H]1C[C@@H]2CC[C@@H](C)[C@@](O)(O2)C(=O)C(=O)N2CCCC[C@H]2C(=O)O[C@H]([C@H](C)C[C@@H]2CC[C@@H](O)[C@H](OC)C2)CC(=O)[C@H](C)/C=C(\C)[C@@H](O)[C@@H](OC)C(=O)[C@H](C)C[C@H](C)/C=C/C=C/C=C/1C [rapamycin],–,–,–,–,–,Akt phosphorylation [11]: enhances; S6 phosphorylation [11]: inhibits

# Source: US9828378B2, “Kinase inhibitors and methods of use” (Intellikine LLC, priority 2008, dated 2017)
